Laboratory results: patent publication EP4799619A1, “COMPOUND TARGETING EGR-1 AND USE THEREOF FOR TREATMENT OF ATOPIC DERMATITIS” (AgeraMedi, Inc., priority 2023, dated 2025)

Target: EGR-1 (Homo sapiens, UniProt P18146)
Assay: EGR-1 DNA binding activity assay (EDBA)
Set-up: made in house
Details: EGR-1 DNA binding inhibitory activity; EGR-1 overexpressing cell lysate; absorbance at 450 nm; compound concentration not given
Method: In this experiment, the inhibitory effect of the compounds of the present invention on EGR-1 binding activity was evaluated using an EGR-1 DNA binding activity assay (EDBA).
Single-stranded sense and antisense oligonucleotides of the following EGR-1 binding sequence (EBS) were prepared by outsourcing to Bioneer Co., Ltd. (Daejeon, Korea). In this case, the 5'-end of the sense oligonucleotide was labeled with biotin. The sense and antisense oligonucleotides were heated at 95 °C for 5 minutes and then left overnight at room temperature to hybridize the sense and antisense oligonucleotides. Hereinafter, the hybridized sense and antisense oligonucleotides are referred to as biotin-EBS. • Sense sequence: biotin-5'-[…]-3' • Antisense sequence: 5'-[…]-3'
Avidin protein was coated on a 96-well plate (purchased from Thermo Fisher Scientific), and biotin-EBS was added to the plate at a concentration of 0.5 pmol/50 µL/well, followed by reaction at 37 °C for 1 hour to allow biotin-EBS oligonucleotide to be attached to the plate. After washing three times with phosphate buffer saline containing 0.05% Tween 20 (PBS/Tween 20) to remove unattached biotin-EBS oligonucleotides, 200 µL of PBS/Tween 20 solution containing 2% bovine serum albumin (BSA) was added to each well, followed by reaction at 37 °C for 1 hour to block the surface of the plate where no oligonucleotide was attached.
The solution containing the sample compound and the EGR-1 protein was added to the biotin-EBS oligonucleotide coated plate prepared in step (2).
The compound sample (1 µL) was reacted with the EGR-1 overexpressing cell lysate containing 10 mM Tris, pH 7.5, 50 mM KCl, 2% BSA and 8% glycerol at room temperature for 30 minutes, and then added to a reaction well coated with biotin-EBS and further reacted at room temperature for one hour. After washing three times with PBS/Tween 20 solution, an EGR-1 antibody was added to the PBS solution supplemented with 2% BSA and 5 mM NaCl in an amount of 50 µL per each well. The mixture was incubated at room temperature for one hour, washed three times with PBS/Tween 20 solution, and then treated with horseradish peroxidase-conjugated secondary antibody (Goat anti-rabbit IgG antibody, Cell Signaling Technology company, Danvers, Mass., USA) diluted by 1:1000 at room temperature for one hour. After washing five times with PBS/Tween 20 solution, a substrate tetramethylbenzidine solution was added to each well in an amount of 50 µL. After reacting for 5 minutes, the reaction was stopped by adding 100 µL of 2 N sulfuric acid solution. The DNA binding inhibitory activity of EGR-1 was measured by absorbance at 450 nm according to Equation 1 below. EGR-1 DNA binding inhibitory activity (%) = 100−{(As/Ap)×100} [formula]
As: absorbance of a sample prepared by reacting an EGR-1-overexpressing cell lysate with the compound.
Ap: absorbance of the sample treated only with EGR-1-overexpressing cell lysate.

EGR-1, sequence (P18146 whole entry): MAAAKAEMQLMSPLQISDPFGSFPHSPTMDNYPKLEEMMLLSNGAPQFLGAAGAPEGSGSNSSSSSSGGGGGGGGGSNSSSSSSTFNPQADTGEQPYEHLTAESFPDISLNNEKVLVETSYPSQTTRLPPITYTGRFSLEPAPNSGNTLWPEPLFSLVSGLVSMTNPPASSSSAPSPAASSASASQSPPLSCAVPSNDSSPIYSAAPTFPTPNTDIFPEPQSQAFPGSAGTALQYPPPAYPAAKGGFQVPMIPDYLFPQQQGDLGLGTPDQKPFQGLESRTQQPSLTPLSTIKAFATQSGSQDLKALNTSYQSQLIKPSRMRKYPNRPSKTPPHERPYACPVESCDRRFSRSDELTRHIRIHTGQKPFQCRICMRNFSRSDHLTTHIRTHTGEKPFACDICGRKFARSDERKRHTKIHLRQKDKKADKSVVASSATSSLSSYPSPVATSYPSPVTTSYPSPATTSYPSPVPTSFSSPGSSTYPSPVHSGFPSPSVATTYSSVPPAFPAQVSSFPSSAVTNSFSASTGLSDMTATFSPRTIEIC

| Structure (SMILES) | Inhibition Rate (%) |
| --- | --- |
| COc1ccc2c(c1)NC(=O)/C2=N\NC(=S)Nc1ccc(C(F)(F)F)cc1 [Compound 26, (Z)-2-(6-methoxy-2-oxoindolin-3-ylidene)-N-(4-(trifluoromethyl)phenyl)hydrazinethioamide] | 49.67 |
| CCNC(=S)N/N=C1\C(=O)Nc2cc(OC)ccc21 [Compound 27, (Z)-N-ethyl-2-(6-methoxy-2-oxoindolin-3-ylidene)hydrazinethioamide] | 44.00 |
| COc1ccc2c(c1)NC(=O)/C2=N\NC(=S)Nc1cccc(C)c1 [Compound 28, (Z)-2-(6-methoxy-2-oxoindolin-3-ylidene)-N-(m-tolyl)hydrazinethioamide] | 28.67 |
| Cc1ccc2c(c1)/C(=N/NC(=S)Nc1ccccc1)C(=O)N2 [Compound 29, (Z)-2-(5-methyl-2-oxoindolin-3-ylidene)-N-phenylhydrazinethioamide] | 27.50 |
| Cc1ccc2c(c1)/C(=N/NC(=S)Nc1cccc([N+](=O)[O-])c1)C(=O)N2 [Compound 30, (Z)-2-(5-methyl-2-oxoindolin-3-ylidene)-N-(3-nitrophenyl)hydrazinethioamide] | 32.70 |
| COc1ccccc1NC(=S)N/N=C1\C(=O)Nc2ccc(C)cc21 [Compound 31, (Z)-N-(2-methoxyphenyl)-2-(5-methyl-2-oxoindolin-3-ylidene)hydrazinethioamide] | 42.73 |
| Cc1ccc2c(c1)/C(=N/NC(=S)Nc1cccc(C(F)(F)F)c1)C(=O)N2 [Compound 32, (Z)-2-(5-methyl-2-oxoindolin-3-ylidene)-N-(3-(trifluoromethyl)phenyl)hydrazinethioamide] | 40.93 |
| Cc1ccc2c(c1)/C(=N/NC(=S)Nc1ccc(F)cc1)C(=O)N2 [Compound 33, (Z)-N-(4-fluorophenyl)-2-(5-methyl-2-oxoindolin-3-ylidene)hydrazinethioamide] | 37.77 |
| NC(=S)N/N=C1\C(=O)Nc2ccc(Br)cc21 [Compound 34, (Z)-2-(5-bromo-2-oxoindolin-3-ylidene)hydrazinethioamide] | 46.00 |
| O=C1Nc2cccc(Br)c2/C1=N/NC(=S)Nc1cccc([N+](=O)[O-])c1 [Compound 35, (Z)-2-(4-bromo-2-oxoindolin-3-ylidene)-N-(3-nitrophenyl)hydrazinethioamide] | 55.33 |
| O=C1Nc2cc(Br)ccc2/C1=N/NC(=S)Nc1cccc([N+](=O)[O-])c1 [Compound 36, (Z)-2-(6-bromo-2-oxoindolin-3-ylidene)-N-(3-nitrophenyl)hydrazinethioamide] | 46.33 |
| O=C1Nc2cccc(Br)c2/C1=N/NC(=S)Nc1ccc([N+](=O)[O-])cc1 [Compound 37, (Z)-2-(4-bromo-2-oxoindolin-3-ylidene)-N-(4-nitrophenyl)hydrazinethioamide] | 36.33 |
| O=C1Nc2ccc(Br)cc2/C1=N/NC(=S)Nc1ccc([N+](=O)[O-])cc1 [Compound 38, (Z)-2-(5-bromo-2-oxoindolin-3-ylidene)-N-(4-nitrophenyl)hydrazinethioamide] | 51.33 |
| COc1ccccc1NC(=S)N/N=C1\C(=O)Nc2ccccc21 [Compound 39, (Z)-N-(2-methoxyphenyl)-2-(2-oxoindolin-3-ylidene)hydrazinethioamide] | 47.33 |
| NC(=S)N/N=C1\C(=O)Nc2cccc(Br)c21 [Compound 40, (Z)-2-(4-bromo-2-oxoindolin-3-ylidene)hydrazinethioamide] | 27.33 |
| NC(=S)N/N=C1\C(=O)Nc2cc(Br)ccc21 [Compound 41, (Z)-2-(6-bromo-2-oxoindolin-3-ylidene)hydrazinethioamide] | 49.00 |
| NC(=S)N/N=C1\C(=O)Nc2c(Br)cccc21 [Compound 42, (Z)-2-(7-bromo-2-oxoindolin-3-ylidene)hydrazinethioamide] | 53.00 |
| O=C1Nc2cccc(Br)c2/C1=N/NC(=S)Nc1ccccc1 [Compound 43, (Z)-2-(4-bromo-2-oxoindolin-3-ylidene)-N-phenylhydrazinethioamide] | 23.00 |
